Here are results for five compounds from patent US4880789A, “2'-Substituted-4-deoxy-thiazolo(5,4-c)-rifamycin SV derivatives” (Gruppo Lepetit S.P.A., priority 1985, dated 1989).

In experiment [1] the test system is S. aureus tour L 165. Description: experimental septicemia in mice (S. aureus). It is filed as in vivo. Conditions: Staphylococcus aureus, once daily for three days, survival on 10th day. Here is the method:
The antimicrobial activity of the compounds of the invention is also confirmed in "in vivo" tests. The animals (groups of five mice) were infected by intraperitoneal injection of 16-hour broth culture of S. aureus tour L 165. Inocula were adjusted so that untreated animals died of septicemia within 48 hours. Animals were treated once daily for three days starting immediately after infection. On the 10th day the value for the ED50 in mg/kg/day was calculated by the method of […]-KARBER (Finney, D. J., Statistical method in biological assay, page 524. C. Griffin Ltd., London, 1952), on the basis of the percentage of surviving animals at each dose.

Experiment [2] has as its system Escherichia coli SKF 12140. In words: MIC, two-fold dilution microtiter, E. coli SKF 12140. Conditions: 18-24 h, 37° C. It counts as cell-based.
Experiment [3] deals with Staphylococcus aureus ATCC 6538. Description: MIC, two-fold dilution microtiter, S. aureus ATCC 6538. It counts as cell-based. To be noted: S. aureus ATCC 6538, Iso-Sensitest broth, 18-24 h, 37° C.
The subject of experiment [4] is S. aureus TOUR L 165. Description: MIC, two-fold dilution microtiter, S. aureus TOUR L 165. It counts as cell-based, Staphylococcus aureus.
The subject of the next experiment is S. pneumoniae UC 41. Description: MIC, two-fold dilution microtiter, S. pneumoniae UC 41. It is filed as cell-based. Conditions: 18-24 h, 37° C.
The subject of another experiment is S. faecalis ATCC 7080. In words: MIC, two-fold dilution microtiter, S. faecalis ATCC 7080. It is filed as cell-based. Conditions: 37° C.
Experiment [5] relates to Klebsiella pneumoniae ISM. Description: MIC, two-fold dilution microtiter, K. pneumoniae ISM. It is filed as cell-based. Conditions: K. pneumoniae ISM, Iso-Sensitest broth, 18-24 h, 37° C.
Experiment [6] relates to Proteus vulgaris XI9H ATCC 881. Description: MIC, two-fold dilution microtiter, P. vulgaris. It is filed as cell-based. Conditions: P. vulgaris XI9H ATCC 881, Iso-Sensitest broth, 18-24 h, 37° C.
Experiment [7] concerns Pseudomonas aeruginosa ATCC 10145. Description: MIC, two-fold dilution microtiter, P. aeruginosa ATCC 10145. Conditions: P. aeruginosa ATCC 10145, Iso-Sensitest broth, 18-24 h, 37° C. It is filed as cell-based.
The subject of experiment [8] is Streptococcus pyogenes C203. Description: MIC, two-fold dilution microtiter, S. pyogenes C203. It counts as cell-based. Conditions: Todd-Hewitt broth, 18-24 h, 37° C. Here is the method:
(§1) The minimum inhibitory concentration (MIC) of representative compounds of the invention was determined using two-fold dilution method in microtiter system. The media used were: Todd-Hewitt broth (Difco) for steptococci; Iso-Sensitest broth (Oxoid) for staphylococci and gram-negative bacteria. The final inoculum was about 10^4 cfμ/ml. […] For M. tuberculosis H37 RV the inoculum consisted of 0.5-1% of a 7-9 day culture in Dubos medium. The tests were carried out in Kirschner medium supplemented with 10% horse serum. Observations were made after 7-days incubation at 37° C.

The subject of experiment [9] is Mycobacterium tuberculosis H37RV ATCC 9360. In words: MIC, M. tuberculosis H37RV, Kirschner medium. It is filed as cell-based. Conditions: 10% horse serum, 7 days, 37° C. Here is the method:
as §1

The test system of another experiment is S. aureus TOUR L 1282. In words: MIC, two-fold dilution microtiter, rifampicin resistant S. aureus TOUR L 1282. It is filed as cell-based. Conditions: Staphylococcus aureus, TOURL1282, rifampicin resistant strain.
The mark [10] stands for this setting: Escherichia coli, SKF12140, Iso-Sensitest broth, read-out: MIC.
Setting [11] is: Staphylococcus aureus, ATCC6538, read-out: MIC.
The mark [12] stands for this setting: Staphylococcus aureus, TOURL165, S. aureus TOUR L 165, Iso-Sensitest broth, 18-24 h, 37° C, read-out: MIC.
[13] abbreviates: Staphylococcus aureus, TOURL165, S. aureus TOUR L 165, supplemented with 30% bovine serum, read-out: MIC.
Setting [14] is: Streptococcus pneumoniae, UC41, Todd-Hewitt broth, read-out: MIC.
Setting [15] is: Enterococcus faecalis, ATCC7080, 18-24 h, read-out: MIC.
Setting [16] is: Klebsiella pneumoniae, read-out: MIC.
Where [17] appears, read: Proteus vulgaris, ATCC881, read-out: MIC.
[18] abbreviates: Pseudomonas aeruginosa, ATCC10145, read-out: MIC.
Where [19] appears, read: Streptococcus pyogenes, read-out: MIC.
The mark [20] stands for this setting: Mycobacterium tuberculosis, 168 h, read-out: MIC.

Converted amounts (≈) assume the structure as drawn. Read-outs that look alike come from different tables or passages of the source.

Turning to `COC1C=COC2(C)Oc3c(C)c(O)c4c(O)c(c5sc(N6CCN(CCO)CC6)nc5c4c3C2=O)NC(=O)C(C)=CC=CC(C)C(O)C(C)C(O)C(C)C(OC(C)=O)C1C` (centres unmarked) [Example 3c, 2'-[4"(2'"-hydroxyethyl)-1"-piperazinyl]rifamycin P], the ED50 with S. aureus tour L 165 [1] (TOURL165, 240 h, sc) is 3.3 mg/kg; in the experiment with S. aureus tour L 165 [1] (TOURL165, po, 240 h, os) it was over 20 mg/kg. The MIC in [2] (setting [10]) was 8 µg/mL (≈ 9.23 µM); in experiment [3] (setting [11]) it was 0.008 µg/mL (≈ 0.00923 µM); with S. aureus TOUR L 165 [4] (setting [12]), 0.016 µg/mL (≈ 0.0185 µM); in the experiment with S. aureus TOUR L 165 [4] (setting [13]) it was 0.032 µg/mL (≈ 0.0369 µM); in the experiment on S. pneumoniae UC 41 (setting [14]) it was 0.008 µg/mL (≈ 0.00923 µM); with S. faecalis ATCC 7080 (setting [15]) it was 4 µg/mL (≈ 4.61 µM). In addition, the MIC in [5] (setting [16]) came to 32 µg/mL (≈ 36.9 µM); in experiment [6] (setting [17]) it was 16 µg/mL (≈ 18.5 µM); in [7] (setting [18]), 128 µg/mL (≈ 148 µM); in [8] (setting [19]), 0.016 µg/mL (≈ 0.0185 µM); in experiment [9] (setting [20]), 4 µg/mL (≈ 4.61 µM); in the experiment on S. aureus TOUR L 1282, 64 µg/mL (≈ 73.8 µM).
Take `COC1C=COC2(C)Oc3c(C)c(O)c4c(O)c(c5sc(N6CCCC6)nc5c4c3C2=O)NC(=O)C(C)=CC=CC(C)C(O)C(C)C(O)C(C)C(OC(C)=O)C1C` (centres unmarked) [Example 1a, 2'-(1"-PyrrolidinyL) rifamycin P]: the MIC in experiment [2] (setting [10]) turned out to be 16 µg/mL (≈ 19.8 µM); in [3] (setting [11]) it was 0.016 µg/mL (≈ 0.0198 µM); with S. aureus TOUR L 165 [4] (setting [12]) it was 0.004 µg/mL (≈ 0.00495 µM); with S. aureus TOUR L 165 [4] (setting [13]), 0.016 µg/mL (≈ 0.0198 µM); in the experiment on S. pneumoniae UC 41 (setting [14]) it was 0.032 µg/mL (≈ 0.0396 µM); with S. faecalis ATCC 7080 (setting [15]), 2 µg/mL (≈ 2.48 µM). In addition, the MIC was 32 µg/mL (≈ 39.6 µM) in experiment [5] (setting [16]); 16 µg/mL (≈ 19.8 µM) in experiment [6] (setting [17]); 8 µg/mL (≈ 9.9 µM) in [7] (setting [18]); 0.008 µg/mL (≈ 0.0099 µM) in experiment [8] (setting [19]); 2 µg/mL (≈ 2.48 µM) in experiment [9] (setting [20]); over 128 µg/mL in the experiment on S. aureus TOUR L 1282.
Consider `COC1C=COC2(C)Oc3c(C)c(O)c4c(O)c(c5sc(N6CCN(Cc7ccccc7)CC6)nc5c4c3C2=O)NC(=O)C(C)=CC=CC(C)C(O)C(C)C(O)C(C)C(OC(C)=O)C1C` (centres unmarked) [Example 1d, 2'(4"-phenylmethyl-1"-piperazinyl) rifamycin P], for which the MIC in experiment [2] (setting [10]) worked out at 32 µg/mL (≈ 35 µM); in experiment [3] (setting [11]), 0.004 µg/mL (≈ 0.00438 µM); in the experiment on S. aureus TOUR L 165 [4] (setting [12]), 0.008 µg/mL (≈ 0.00876 µM); in the experiment with S. aureus TOUR L 165 [4] (setting [13]), 0.016 µg/mL (≈ 0.0175 µM); with S. pneumoniae UC 41 (setting [14]) it was 0.064 µg/mL (≈ 0.0701 µM); with S. faecalis ATCC 7080 (setting [15]) it was 1 µg/mL (≈ 1.1 µM). Also, the minimum inhibitory concentration (MIC) in experiment [5] (setting [16]) is 64 µg/mL (≈ 70.1 µM); in experiment [6] (setting [17]), 32 µg/mL (≈ 35 µM); in [7] (setting [18]) it was 16 µg/mL (≈ 17.5 µM); in experiment [8] (setting [19]) it was 0.064 µg/mL (≈ 0.0701 µM); in experiment [9] (setting [20]), 0.125 µg/mL (≈ 0.137 µM); against S. aureus TOUR L 1282 it was over 128 µg/mL.
Take `CCN(CC)c1nc2c(s1)c1c(O)c3c(O)c(C)c4c(c32)C(=O)C(C)(OC=CC(OC)C(C)C(OC(C)=O)C(C)C(O)C(C)C(O)C(C)C=CC=C(C)C(=O)N1)O4` (centres unmarked) [Example 5, 2'-(N,N-diethylamino) rifamycin P]: the ED50 is 0.21 mg/kg in the experiment on S. aureus tour L 165 [1] (TOURL165, 240 h, sc) and 0.82 mg/kg in the experiment on S. aureus tour L 165 [1] (TOURL165, po, 240 h, os). Also, the MIC in [2] (setting [10]) came out at 32 µg/mL (≈ 39.5 µM); in experiment [3] (setting [11]), 0.032 µg/mL (≈ 0.0395 µM); in the experiment on S. aureus TOUR L 165 [4] (setting [12]), 0.064 µg/mL (≈ 0.079 µM); in the experiment on S. aureus TOUR L 165 [4] (setting [13]), 0.5 µg/mL (≈ 0.617 µM); in the experiment on S. pneumoniae UC 41 (setting [14]), 0.032 µg/mL (≈ 0.0395 µM); with S. faecalis ATCC 7080 (setting [15]) it was 1 µg/mL (≈ 1.23 µM). For the same compound, the MIC in experiment [5] (setting [16]) was 64 µg/mL (≈ 79 µM); in experiment [6] (setting [17]), 32 µg/mL (≈ 39.5 µM); in [8] (setting [19]), 0.064 µg/mL (≈ 0.079 µM); in experiment [9] (setting [20]) it was 0.5 µg/mL (≈ 0.617 µM); in the experiment on S. aureus TOUR L 1282, over 128 µg/mL.
For the compound “2'(4"-phenylmethoxycarbonyl-1"-piperazinyl) rifamycin P [Example 1f]”, the MIC in experiment [2] (Iso-Sensitest broth) is over 128 µg/mL; in experiment [3], 0.064 µg/mL; in the experiment with S. aureus TOUR L 165 [4] (S. aureus TOUR L 165, Iso-Sensitest broth, 18-24 h, 37° C), 0.064 µg/mL; in the experiment on S. aureus TOUR L 165 [4] (S. aureus TOUR L 165, supplemented with 30% bovine serum), 0.064 µg/mL; against S. pneumoniae UC 41 (Todd-Hewitt broth), 0.064 µg/mL; in the experiment with S. faecalis ATCC 7080 (18-24 h), 2 µg/mL. For the same compound, the minimum inhibitory concentration (MIC) was over 128 µg/mL in experiment [5]; 64 µg/mL in experiment [6]; 32 µg/mL in experiment [7]; 0.125 µg/mL in experiment [8]; 0.5 µg/mL in experiment [9].
